Results reported in ChEMBL document CHEMBL3507680, “University of Dundee, Gates Library screen for HepG2 cell viability”.

Assay: Human HepG2 cell viability assay in 384 well format
Format: toxicity, cell-based
Set-up: dose 125 nL, time 70.5 hour; cytotoxicity at 70.5 h: concentration not given beside the values
Settings: HepG2 cells, read-out: Inhibition

O=S(=O)(C1CC1)N1CCCn2nnc(Cn3cccc3)c2C1
cytotoxicity at 70.5 h: -8.69%

CCS(=O)(=O)N1CCCn2nnc(Cn3cccc3)c2C1
cytotoxicity at 70.5 h: -5.99%

CCN1CC2(CC1=O)CN(C(C)=O)CCN(C(=O)NC(C)C)C2 (stereo unspecified)
cytotoxicity at 70.5 h: -8.93%

CCn1nc(C)cc1C(=O)N1C[C@@H]2C[C@@H](c3nnc(C)[nH]3)O[C@@H]2C1
cytotoxicity at 70.5 h: -12.7%

Cc1nc(CN2CCN(C)C(=O)C23CCN(CC2CCCC2)CC3)cs1
cytotoxicity at 70.5 h: -9.21%

Cc1ccc(N2C[C@@H]3OCCN(Cc4c(C)noc4C)[C@@H]3C2)nn1
cytotoxicity at 70.5 h: -1.63%

CC(=O)N1CCn2c(C(=O)N(C)C)cnc2C1
cytotoxicity at 70.5 h: -29.5%

COCCNC(=O)[C@H]1CN(c2nnc(C)s2)C[C@H]2OCC[C@@H]12
cytotoxicity at 70.5 h: -17.6%

Cn1cnc2c1C(COCC1CCOCC1)CN(C(=O)c1ccoc1)C2 (stereo unspecified)
cytotoxicity at 70.5 h: 11.3%

Cc1cccc(CN2C(=O)CC[C@@H]3[C@H]2CCN3CC2CCOCC2)n1
cytotoxicity at 70.5 h: -18.9%

Cn1c2c(ccc1=O)CC(NS(C)(=O)=O)CC2 (stereo unspecified)
cytotoxicity at 70.5 h: 27.8%

CS(=O)(=O)NC1CCc2c(ccc(=O)n2CC2CC2)C1 (stereo unspecified)
cytotoxicity at 70.5 h: -15.1%

CC(C)CC(=O)N1CCc2nc(N3CCOCC3)nc(NC(C)C)c2C1
cytotoxicity at 70.5 h: -15.8%

O=C(Cc1ccccn1)N1CCN(CC2CC2)c2ncccc2C1
cytotoxicity at 70.5 h: -4.27%

O=C(c1ccoc1)N1CC[C@@H]2[C@H]1CCC(=O)N2c1ccccc1
cytotoxicity at 70.5 h: -7.05%

Cc1ccc(C(=O)N2CC[C@@H]3[C@H]2CCC(=O)N3c2ccccc2)o1
cytotoxicity at 70.5 h: -13.7%

Cn1nnc2c1CCN(Cc1ccccc1)C2COCC1CC1 (stereo unspecified)
cytotoxicity at 70.5 h: -3.64%

COCCO[C@H]1CCN(C(=O)C2CCOCC2)[C@H]1Cc1ccncc1
cytotoxicity at 70.5 h: 29.3%

Cn1cccc1C(=O)N1CCC2(CC1)CN(c1cncnc1)C(=O)CO2
cytotoxicity at 70.5 h: 8.12%

O=C(c1ccco1)N1CC[C@H]2[C@H]1CCN2CC1CCOCC1
cytotoxicity at 70.5 h: 5.37%

O=C(c1ccc[nH]1)N1CCn2cc(Cn3cncn3)nc2C1
cytotoxicity at 70.5 h: -9.02%

C[C@@H]1CN(C(=O)NC2CC2)C[C@]12CCN(c1ccsc1)C2=O
cytotoxicity at 70.5 h: -3.3%

COCCO[C@H]1CCN(C(=O)c2ccc[nH]2)[C@H]1Cc1ccncc1
cytotoxicity at 70.5 h: -3.06%

COCC(=O)N1CC[C@H]2C[C@H](C)O[C@@H]2C1
cytotoxicity at 70.5 h: -7.04%

Cn1cccc1C(=O)N1CCc2ncnc(N3CCCC3)c2CC1
cytotoxicity at 70.5 h: -5.07%

CN(C)C(=O)N1C[C@H]2CN(Cc3cccc(F)c3)C(=O)[C@H]2C1
cytotoxicity at 70.5 h: -9.2%

COc1cc(N2CC[C@H](O)[C@@H]2Cc2cnn(C)c2)ncn1
cytotoxicity at 70.5 h: -13.3%

CCOCC1CN(C(=O)c2cscn2)Cc2nnn(CC3CC3)c21 (stereo unspecified)
cytotoxicity at 70.5 h: -6.01%

O=C(C1CCOC1)N1C[C@H]2CN(Cc3ccccn3)C[C@H]2C1 (stereo partly specified)
cytotoxicity at 70.5 h: -18%

O=C(c1ncccn1)N1C[C@H]2CCC[C@@]2(COCC2CCOCC2)C1
cytotoxicity at 70.5 h: -15.9%

COc1ccc(CN2CCC3(CC2)CCN(c2ncccn2)CC3)cc1
cytotoxicity at 70.5 h: -6.69%

CN1CCN(Cc2ccoc2)Cc2cccnc21
cytotoxicity at 70.5 h: -4.02%

COCC(=O)N1CC[C@@H](N2CCOCC2)[C@@H]1Cc1ccccc1
cytotoxicity at 70.5 h: 4.62%

CCCN(CC)C(=O)c1cc2c(c3ccccc3n2C)n1C(=O)N(C)C
cytotoxicity at 70.5 h: 4.9%

CC(=O)N1CCC2(CCN(C(=O)c3ccc(Cl)c(C(F)(F)F)c3)CC2)C1
cytotoxicity at 70.5 h: 1.62%

O=C(CCc1ccncc1)N1CCc2c(ncnc2N2CCOCC2)C1
cytotoxicity at 70.5 h: 31.1%

Cc1cccc(CN2CCC(n3cc(CCO)nn3)CC2)c1C
cytotoxicity at 70.5 h: 2.7%

Fc1ccccc1CC1CCN(Cc2cscn2)CC1
cytotoxicity at 70.5 h: -4.53%

O=C(Cn1ncc(N2CCCC2)cc1=O)Nc1ccc2nccnc2c1
cytotoxicity at 70.5 h: -3.43%

O=C(CCC(F)(F)F)N1CCCC2(CCC(=O)N(CC3CC3)C2)C1 (stereo unspecified)
cytotoxicity at 70.5 h: -15.8%

Cc1cc(C)c(C(=O)NC2CCCc3nc(N(C)C)ncc32)cc1C (stereo unspecified)
cytotoxicity at 70.5 h: 23.6%

COc1ccc(CCN)cc1-c1ccc(C(N)=O)cc1
cytotoxicity at 70.5 h: -6.83%

CC(C)CN1CC(c2nc(C3CC3)n[nH]2)CC1=O (stereo unspecified)
cytotoxicity at 70.5 h: -9.82%

COc1ccc2ncn(Cc3ncc[nH]3)c(=O)c2c1
cytotoxicity at 70.5 h: 2.5%

CN(Cc1ccccn1)C(=O)c1cc(CN2CCC(O)CC2)on1
cytotoxicity at 70.5 h: -16.8%

Cc1ccnc(CNC(=O)C2CC(=O)N(CCN(C)C)C2)c1 (stereo unspecified)
cytotoxicity at 70.5 h: -7.06%

CN1C[C@@H]2CC[C@H](C1)N(Cc1ccccc1OCCN1CCOCC1)C2
cytotoxicity at 70.5 h: 1.83%

CCc1ccccc1OC1CN(C(=O)c2cccs2)C1
cytotoxicity at 70.5 h: 7.24%

COc1ccc(OC2CCN(C(=O)c3ccc(C(C)=O)s3)CC2)cc1
cytotoxicity at 70.5 h: -6.92%

CCC(=O)c1ccc(OCC(=O)N2CCNCC2C(=O)NC2CC2)cc1 (stereo unspecified)
cytotoxicity at 70.5 h: -9.05%

Cc1cccc(-c2nc(N)nc3c2CN(C(=O)c2cc(C)n[nH]2)C3C)c1 (stereo unspecified)
cytotoxicity at 70.5 h: -13.9%

O=C(c1ccccn1)N1C[C@@H]2CC[C@H](C1)N(C(=O)CCN1CCCC1)C2
cytotoxicity at 70.5 h: 38%

O=C(Cn1ccc2ncccc2c1=O)N1CCCCC1
cytotoxicity at 70.5 h: 13.3%

CCOC(=O)N1CCN(C(=O)Cn2ccc3ncccc3c2=O)CC1
cytotoxicity at 70.5 h: -8.19%

Cc1cc(N2CCCN(C(=O)Cc3cccnc3)CC2)ccn1
cytotoxicity at 70.5 h: -6.53%

Cn1cnnc1SCC(=O)NC1CC(=O)N(CCc2cccc(Cl)c2)C1 (stereo unspecified)
cytotoxicity at 70.5 h: -7.55%

CN1CC2(CCN(C(=O)c3cccnc3)CC2)c2cccc(F)c21
cytotoxicity at 70.5 h: -0.505%

Cc1nc(COC[C@@H]2CCC[C@@]23CNCCO3)cs1
cytotoxicity at 70.5 h: 15.5%

COc1cccc(CC(=O)N2CC[C@@H](OC)[C@@H]2Cc2cccnc2)c1
cytotoxicity at 70.5 h: -4.93%

COc1ccc(CC(=O)N2CC[C@@H](OC)[C@@H]2Cc2cccnc2)cc1
cytotoxicity at 70.5 h: -4.94%

O=C1CCCN1Cc1nnn2c1CN(c1cccnc1)CCC2
cytotoxicity at 70.5 h: -8.56%

c1cncc(N2CCCn3nnc(COCC4CC4)c3C2)c1
cytotoxicity at 70.5 h: -7.98%

CCn1nc(C)cc1C(=O)N1C[C@@H]2C[C@@H](C)O[C@@H]2C1
cytotoxicity at 70.5 h: -7.68%

Cn1ccnc1CN1CCC2(CC1)COC2
cytotoxicity at 70.5 h: -7.76%

Fc1cccc(CN2CCC3(CCCN3c3ncccn3)CC2)c1
cytotoxicity at 70.5 h: 5.31%

CS(=O)(=O)N1CCOCC2(CCN(Cc3ccoc3)CC2)C1
cytotoxicity at 70.5 h: -3.92%

COc1ncccc1CN1CCC2(CC1)CC(OCC1CC1)CO2 (stereo unspecified)
cytotoxicity at 70.5 h: -4.27%

Cc1noc(C)c1CN1CC[C@H]2[C@@H]1CCC(=O)N2CC1CCOCC1
cytotoxicity at 70.5 h: -3.53%

CCN1C[C@@H]2[C@@H](OC)CCN(S(=O)(=O)c3ccccc3)[C@@H]2C1
cytotoxicity at 70.5 h: 3.99%

CN(C)C(=O)CN1CCCC2(CCN(c3ccsc3)C2=O)C1 (stereo unspecified)
cytotoxicity at 70.5 h: 23.7%

COc1ccc(CN2CCCC3(CCN(c4ccsc4)C3=O)C2)cc1 (stereo unspecified)
cytotoxicity at 70.5 h: 2.29%

Cc1ncsc1CN1C[C@@H]2COC[C@]2(C(=O)NCC2CC2)C1
cytotoxicity at 70.5 h: -3.67%

OCCN1CCOC2(CCCN(c3cccc(F)c3)C2)C1 (stereo unspecified)
cytotoxicity at 70.5 h: -7.62%

O=C(NC1CCC1)[C@@H]1C[C@@H]2CCN(Cc3cccs3)C[C@@H]2O1
cytotoxicity at 70.5 h: 7.52%

Cc1nc(COC[C@@H]2CC[C@H]3[C@H](CCN3c3ncccn3)O2)cs1
cytotoxicity at 70.5 h: -7.79%

O=S1(=O)c2ccccc2C2(CCN(Cc3ccccc3)C2)N1CC1CC1 (stereo unspecified)
cytotoxicity at 70.5 h: -5.62%

CC(=O)N1CCC2(CC1)COCCN2Cc1ccc(F)cc1
cytotoxicity at 70.5 h: -0.157%

O=C1[C@H]2CN(CC3CC3)C[C@H]2CN1c1ccsc1
cytotoxicity at 70.5 h: -3.2%

Cn1cc(N2CCC3(CCN(Cc4nccs4)C3)C2=O)cn1 (stereo unspecified)
cytotoxicity at 70.5 h: -12.1%

COc1ccc(CN2C[C@H]3CN(c4ccsc4)C(=O)[C@H]3C2)cc1
cytotoxicity at 70.5 h: -20.7%

O=C1CC2(CCN(Cc3ccccn3)C2)CN1c1cncnc1 (stereo unspecified)
cytotoxicity at 70.5 h: -16.1%

O=C(c1ccno1)N1CC[C@@H]2O[C@@H](COCCN3CCCC3)CC[C@@H]21
cytotoxicity at 70.5 h: -17.9%

O=C(c1cscn1)N1CCC2(CCN(Cc3cccs3)CC2)C1
cytotoxicity at 70.5 h: -6.38%

c1nc2c(c(C3CC3)n1)CCN(CC1CCOC1)CC2 (stereo unspecified)
cytotoxicity at 70.5 h: -13.3%

CNC(=O)[C@@]12CCO[C@@H]1CCN(S(=O)(=O)c1cccnc1)C2
cytotoxicity at 70.5 h: -13.7%

O=C(NCC1COCc2c(-c3cccnc3)nnn2C1)c1cccs1 (stereo unspecified)
cytotoxicity at 70.5 h: -15.7%

Cc1ccc(N2CC[C@H]3O[C@@H](C(=O)NCc4ccco4)CC[C@H]32)nn1
cytotoxicity at 70.5 h: -4.81%

Cc1noc(C)c1CN1CC[C@H]2OCC[C@@]2(C(=O)N2CCCO2)C1
cytotoxicity at 70.5 h: -7.09%

O=c1cccnn1CC1CN(Cc2ccsc2)Cc2nccn2C1 (stereo unspecified)
cytotoxicity at 70.5 h: 0.993%

O=C(Nc1ccccc1)N1CCn2nnc(COc3cccnc3)c2C1
cytotoxicity at 70.5 h: 1.76%

Cc1ccc(CN2CC[C@@H]3O[C@@H](C(=O)N4CCN(C)CC4)C[C@@H]32)cc1
cytotoxicity at 70.5 h: -1.43%

Cc1noc(C)c1CN1CC[C@H]2[C@H]1CCN2CC1CCOCC1
cytotoxicity at 70.5 h: -5.25%

C[C@H]1CN(c2ccccn2)C[C@@]12CCN(Cc1cccnc1)C2=O
cytotoxicity at 70.5 h: -0.624%

Cn1cnc2c1C(COCC1CCOCC1)CN(C1CCOCC1)C2 (stereo unspecified)
cytotoxicity at 70.5 h: -25.6%

CCn1cc2c(n1)CN(Cc1ccncc1)CC2COCC1CC1 (stereo unspecified)
cytotoxicity at 70.5 h: -17.6%

c1cncc(COC[C@H]2CC[C@H]3[C@H](CCN3Cc3cccs3)O2)c1
cytotoxicity at 70.5 h: 2.81%

COc1ccc(CN2C[C@@H](N(C)Cc3ccco3)[C@H]3OCCC[C@H]32)cc1
cytotoxicity at 70.5 h: -8.22%

Cc1ccc(N2CCO[C@H]3CN(Cc4cnn(C)c4)C[C@H]32)nn1
cytotoxicity at 70.5 h: -19.2%

Cc1ccc(N2CCO[C@H]3CN(CC4CC4)C[C@H]32)nn1
cytotoxicity at 70.5 h: -13.4%

CN(C)CC1CN(Cc2ccc3c(c2)OCO3)Cc2nccn2C1 (stereo unspecified)
cytotoxicity at 70.5 h: 27.2%

O=C(c1ccccn1)N1Cc2nccn2CC(CN2CCOCC2)C1 (stereo unspecified)
cytotoxicity at 70.5 h: -10.3%

CN(C)CC1CN(Cc2ccsc2)Cc2nccn2C1 (stereo unspecified)
cytotoxicity at 70.5 h: -0.272%

CO[C@H]1CCN(Cc2cccs2)[C@@H]2CN(Cc3ccncc3)C[C@H]12
cytotoxicity at 70.5 h: -2.84%

Cc1ccc(CN2CCOC3(COCCN(CCN(C)C)C3)C2)o1 (stereo unspecified)
cytotoxicity at 70.5 h: -7.86%

CN(Cc1cccnc1)C1CC2(CCN(c3ccccn3)CC2)C1
cytotoxicity at 70.5 h: -8.74%

c1ccc(CN2CC[C@]3(C[C@@H](Oc4ccccn4)CO3)C2)nc1
cytotoxicity at 70.5 h: 19.9%
